Results published in patent US5744340A, “Expression of human inducible nitric oxide synthase” (Schering Corporation, priority 1995, dated 1998).
Values joined by “and” are separate entries in the source; they are usually repeats but may differ in a detail not shown here. Equal entries are not always repeated. Where two headings read alike, the source gives them in different places.

Experiments:
human iNOS [1] = target: T1, human iNOS (Homo sapiens, UniProt P35228); experiment: iNOS activity: conversion of radioactive arginine to citrulline; format: biochemical; details: for dependence of activity on iNOS cofactors: crude cell extract; for NOS activity without calmodulin coexpression: expression in E. coli
T1 construct: A full length iNOS cDNA was assembled from the products of the four PCR reactions; made in house; host or cells: E. coli JS5
Protocol: iNOS activity was measured by the conversion of radioactive arginine to citrulline similar to that described by Bredt and Snyder (Proc. Natl. Acad. Sci. USA, 1989, 86:9030-9033). Reactions contained 20 mM HEPES pH 7.5, 1 mM DTT, 10 μM FAD, 10 μM FMN, 20 μM THB, 2 μM hemin, 1 mM NADPH, 2 mg/ml BSA, 50 μM cold arginine and 1 μM ^3 H-arginine (60 Ci/mmole; Amersham). […] The reaction mix was then passed through 100 μl of Dowex resin (AG50-X8) in a filtration plate to separate citrulline (unbound) from arginine (bound). The filtrate was counted with one volume of scintillation fluid in 1450 Microbeta Plus liquid scintillation counter (Wallac). Enough enzyme is used per assay point to convert 10-20% of the tritiated arginine to product. Activities of various cell extracts examined are reported in units/ml, units defined as pmoles of citrulline formed per minute. Samples of E coli cell lysate expressing iNOS activity were desalted on a G-25 column prior to assay to remove any cold arginine.
NOS assays were performed as described above, except 1 μM undiluted labeled arginine was used. When calmodulin was used it was added at 10 μg/ml.
The iNOS activity in the crude cell extract was further characterized by a number of criteria.
Cells were broken and processed for activity, as described, except that THB was not added. The assay was then run with varying amounts of THB.

rat bNOS [2] = details: Klatt et al., 1994, cited from earlier work
human iNOS [3] = target: T1, human iNOS; experiment: retention of iNOS activity on overnight storage; format: physicochemical
Protocol: Breakage of cells and the ammonium sulfate fractionations were done in the presence of 10 μM FAD, 10 μM FMN, 2 μM THB, and 2 μM hemin. Leaving these cofactors out of the breaking buffer had no effect on the level of iNOS activity. […] Flavins were omitted after the 40% ammonium sulfate fractionation since they bind tightly to Q Sepharose. CHAPS detergent was included for the Q Sepharose column because iNOS fractionated poorly from the bulk of the protein in its absence. The yield of iNOS from about 20 liters of cells (32 g starting protein in the crude extract) was about 30-40 mg.

murine iNOS = details: 1991, cited from earlier work
rat bNOS [4] = details: cited from earlier work

T1 sequence (P35228 whole entry): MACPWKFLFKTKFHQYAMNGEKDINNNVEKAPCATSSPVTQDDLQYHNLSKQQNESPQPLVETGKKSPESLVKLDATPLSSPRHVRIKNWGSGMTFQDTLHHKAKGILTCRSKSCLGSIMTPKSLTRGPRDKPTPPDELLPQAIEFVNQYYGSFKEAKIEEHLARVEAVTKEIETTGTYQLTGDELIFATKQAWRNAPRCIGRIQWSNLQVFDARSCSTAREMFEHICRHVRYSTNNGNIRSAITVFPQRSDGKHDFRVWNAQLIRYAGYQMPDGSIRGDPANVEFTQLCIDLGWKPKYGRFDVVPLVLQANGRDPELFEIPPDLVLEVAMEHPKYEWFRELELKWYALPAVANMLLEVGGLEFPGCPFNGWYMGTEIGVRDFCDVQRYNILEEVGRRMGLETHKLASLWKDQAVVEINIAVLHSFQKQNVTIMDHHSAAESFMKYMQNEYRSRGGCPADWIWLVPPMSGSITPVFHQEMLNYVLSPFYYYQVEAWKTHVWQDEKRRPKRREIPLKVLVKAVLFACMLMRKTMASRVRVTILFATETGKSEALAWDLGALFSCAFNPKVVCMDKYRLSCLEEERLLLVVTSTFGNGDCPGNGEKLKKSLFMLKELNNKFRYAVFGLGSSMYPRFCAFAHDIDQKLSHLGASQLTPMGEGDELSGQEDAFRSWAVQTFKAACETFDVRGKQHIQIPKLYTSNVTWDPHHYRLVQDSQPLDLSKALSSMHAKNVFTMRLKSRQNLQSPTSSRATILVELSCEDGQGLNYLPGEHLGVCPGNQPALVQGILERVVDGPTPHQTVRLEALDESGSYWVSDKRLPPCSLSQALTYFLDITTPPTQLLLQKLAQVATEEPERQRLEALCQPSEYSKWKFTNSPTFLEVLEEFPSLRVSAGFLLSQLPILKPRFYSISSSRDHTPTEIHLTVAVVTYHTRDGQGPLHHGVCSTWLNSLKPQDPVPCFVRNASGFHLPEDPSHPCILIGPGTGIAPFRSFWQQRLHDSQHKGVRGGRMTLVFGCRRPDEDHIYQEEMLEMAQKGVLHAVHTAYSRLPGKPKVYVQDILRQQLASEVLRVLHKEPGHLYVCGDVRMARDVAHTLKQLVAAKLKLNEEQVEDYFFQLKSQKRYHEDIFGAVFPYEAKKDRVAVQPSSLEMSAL

In the case of `[Ca+2].[Cl-].[Cl-]` [CaCl2, reference compound], the “effect of addition on iNOS activity” value (human iNOS [1]; 1 mM CaCl2) is reported as “unaffected”.
For `O=C(O)CN(CCOCCOCCN(CC(=O)O)CC(=O)O)CC(=O)O` [EGTA, reference compound], the “effect of addition on iNOS activity” value (human iNOS [1]; 1 mM EGTA) was “unaffected”.
In the case of `Cc1cc2nc3c(=O)[nH]c(=O)nc-3n(C[C@H](O)[C@H](O)[C@H](O)COP(=O)(O)OP(=O)(O)OC[C@H]3O[C@@H](n4cnc5c(N)ncnc54)[C@H](O)[C@@H]3O)c2cc1C` [FAD, reference compound], the “dependence of activity on iNOS cofactors” value (human iNOS [1]) is reported as “no dependence”.
With `Cc1cc2nc3c(=O)[nH]c(=O)nc-3n(C[C@H](O)[C@H](O)[C@H](O)COP(=O)(O)O)c2cc1C` [FMN, reference compound] the “dependence of activity on iNOS cofactors” value (human iNOS [1]) was “no dependence”.
With `C[C@H](O)[C@H](O)[C@H]1CNc2nc(N)[nH]c(=O)c2N1` [THB, tetrahydrobiopterin, reference compound] the “dependence of enzyme activity on added THB” value (human iNOS [1]; E. coli expressed iNOS) was “completely dependent”, the EC50 (human iNOS [1]; FIG. 4, cells broken without THB, varying THB in assay, read-out: half-maximal activity (THB titration)) was ~120 nM and 120 nM and the “effect of THB on NOS activity” value (human iNOS [1]; cells broken in the absence of THB, THB added) was “restores NOS activity”. For the same molecule, the Kd (rat bNOS [2]; read-out: Kd for THB binding to rat bNOS) was ~40 nM, the Kd (rat bNOS [2]; in the absence of 100 μM arginine, read-out: binding constant of THB for bNOS) was 250 nM and the Kd (rat bNOS [2]; in the presence of 100 μM arginine, read-out: binding constant of THB for bNOS) was 37 nM.
With `N=C(N)NN` [aminoguanidine, reference compound] the “IC50's on E. coli-derived compared with 293 cell-derived iNOS” value (human iNOS [1]; FIG. 5, 1 μM labeled arginine, inhibitor 0.01 to 10,000 μM) was “within two-fold of each other on both sources of iNOS”.
With `N=C(N)NCCC[C@H](N)C(=O)O` [arginine, L-arginine, reference compound] the “Km for arginine compared with mammalian derived iNOS” value (human iNOS [1]; E. coli expressed iNOS) was “same Km”.
Work on `c1c[nH]cn1` [imidazole, reference compound] yielded an IC50 (human iNOS [1]) of 120000 nM.
For calmodulin, the “effect of addition of calmodulin on NOS activity” value (human iNOS [1]; FIG. 2, coexpression extracts, calmodulin 10 μg/ml, 1 μM undiluted labeled arginine) was “no effect”, the “effect of addition on iNOS activity” value (human iNOS [1]; calcium +10 mg/ml calmodulin) was “unaffected” and the “effect of calmodulin in the NOS assay” value (human iNOS [1]; iNOS expressed in E. coli without coexpression of calmodulin) was “no effect”.
With hemin [reference compound] the “dependence of activity on iNOS cofactors” value (human iNOS [1]) was “no dependence”.
In the case of “human iNOS: human inducible nitric oxide synthase expressed in E. coli, coexpressed with human calmodulin”, the “Specific Activity” value (human iNOS [1]; 40% ammonium sulfate ppt) is reported as 19,600 units/mg, the “specific activity compared with murine iNOS” value (human iNOS [1]; E. coli expressed iNOS) is reported as “approximately the same specific activity” and the “level of activity with coexpression relative to without coexpression” value (human iNOS [1]; FIG. 2, average of three assays) is reported as > 100 fold. For the same molecule, the “Specific Activity” value (human iNOS [1]; Q Sepharose pool) was 149,000 units/mg, the “Specific Activity” value (human iNOS [1]; S300 pool) was 317,000 units/mg and the “Specific Activity” value (human iNOS [1]; cell lysate) was 2,420 units/mg. For the same molecule, the “activity with coexpression of calmodulin” value (human iNOS [1]; crude extract) was 3000-5000 units/mg, the “NOS activity without calmodulin coexpression” value (human iNOS [1]) was “barely detectable above background” and the “NOS activity without calmodulin coexpression” value (human iNOS [1]; listed as iNOS) was “barely detectable above the E. coli negative control”. The “specific activity of iNOS in the crude cell supernatant” value (human iNOS [1]; iNOS amount estimated from SDS gel against BSA control) was 500-1000 nmoles citrulline/min/mg of iNOS, the “specific activity of the most pure material” value (human iNOS [1]; leading edge of the S300 column, >95% pure) was 450,000 units/mg and the “activity after overnight storage” value (human iNOS [3]; absence of cofactors (FAD, FMN, THB, hemin)) was “half of the activity was lost”. The “activity after overnight storage” value (human iNOS [3]; presence of cofactors (10 μM FAD, 10 μM FMN, 2 μM THB, 2 μM hemin)) was “complete activity was retained”.
In the case of “murine iNOS: purified murine inducible nitric oxide synthase (Stuehr et al., 1991)”, the “specific activity of purified murine iNOS” value (murine iNOS; Stuehr et al.) is listed as 1000 nmol/min/mg and the “specific activity of murine iNOS” value (murine iNOS; pure murine iNOS, b61: Stuehr et al.) is listed as 1×10^6 units/mg and 1,000,000 units/mg.
For “rat bNOS: rat brain or neuronal nitric oxide synthase”, the “specific activity of rat bNOS” value (rat bNOS [4]) is listed as 270,000 units/mg.
